The values below come from ChEMBL document CHEMBL1201862, “PubChem BioAssay data set” (2004).

The structures appear in SMILES notation.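 Cells were grown in 96-well plates and exposed to each compound for 48 hours at five concentrations; endpoints were interpolated linearly between bracketing concentrations, or set to the highest concentration if not reached. The concentration for 50% growth inhibition is given as GI50.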 Calls of active or inactive are those of the source. Cut-off read from the data, not from the text of the source: active = GI50 up to about 1.1 µM and inactive = higher.

Assay in all cases: DTP human tumour cell line panel, 48 h
In experiment [1] the test system is EKVX.
Experiment [2] relates to OVCAR-3.
The subject of experiment [3] is MDA-MB-231.
The test system of experiment [4] is SW-620.
Experiment [5] concerns PC-3.
For experiment [6], the system named is Malme-3M.
In experiment [7] the test system is OVCAR-4.
Experiment [8] relates to SK-MEL-28.
The test system of experiment [9] is M14.
The subject of experiment [10] is UO-31.
In experiment [11] the test system is MOLT-4.
The test system of experiment [12] is OVCAR-8.
Experiment [13] concerns HOP-62.
The test system of experiment [14] is IGROV-1.
Experiment [15] has as its system MDA-N.
For experiment [16], the system named is SN12C.
Experiment [17] concerns Hs-578T.
The test system of experiment [18] is COLO 205.
Experiment [19] has as its system SF-539.
In experiment [20] the test system is SNB-75.

Turning to `Cc1cc(OCC(=O)O)c(Cl)cc1Cl`, the GI50 in experiment [1], in experiment [2], in experiment [3], in [4], in experiment [5] and in [6] was > 100 µM (inactive) in each case. In addition, the GI50 in experiment [7], in experiment [8], in experiment [9], in experiment [10], in [11] and in experiment [12] was > 100 µM (inactive) each time. In addition, the GI50 in [13], in [14], in experiment [15], in experiment [16] and in [17] was > 100 µM (inactive) each time.
Regarding `CC1(C)C(=O)/C=C\C(=O)C(C)(C)C(=O)/C=C\C(=O)C(C)(C)C2=CC=C(O2)C(C)(C)C(=O)/C=C\C1=O`, the GI50 – broadly, the concentration giving 50% growth inhibition – was 5.21 µM (inactive) in experiment [1]; 3.27 µM (inactive) in experiment [2]; 1.66 µM (inactive) in [4]; 2.29 µM (inactive) in experiment [18]; 15.8 µM (inactive) in experiment [5]; 1.91 µM (inactive) in [6]. Besides, the GI50 in experiment [7] was 6.61 µM (inactive); in experiment [8], 4.99 µM (inactive); in experiment [9], 2.21 µM (inactive); in experiment [10], 14.5 µM (inactive); in experiment [11], 1.27 µM (inactive); in [12], 4.44 µM (inactive). The GI50 in experiment [13] was 24.3 µM (inactive); in [19] it was 9.62 µM (inactive); in experiment [14] it was 9.18 µM (inactive); in [15], 5.01 µM (inactive); in [16], 5.48 µM (inactive); in [17] it was 16.9 µM (inactive).
Regarding `C=C1C(=O)CC2C1CC(=O)/C(C)=C/CCC(C)(O)C2O` (stereo unspecified), the GI50 in experiment [1] is 18.7 µM (inactive); in [2], 7.16 µM (inactive); in experiment [3], 1.07 µM (active); in [4] it was 7.26 µM (inactive); in [18] it was 2.03 µM (inactive); in experiment [5] it was 0.853 µM (active). Besides, the GI50 in [6] is 1.36 µM (inactive); in experiment [7] it was 10.9 µM (inactive); in experiment [8], 14.9 µM (inactive); in experiment [9], > 25.2 µM (inactive); in [10] it was 11.7 µM (inactive); in experiment [11], 1.57 µM (inactive). For the same molecule, the GI50 was 4.3 µM (inactive) in experiment [12]; 26.7 µM (inactive) in experiment [13]; 10.6 µM (inactive) in [14]; 1.48 µM (inactive) in experiment [15]; 2.29 µM (inactive) in [16]; 11.8 µM (inactive) in experiment [20]. The GI50 in experiment [17] is 5.4 µM (inactive).
As for `Cn1c2ccccc2c(=S)c2cc(NC(=O)CCCCC(=O)Nc3ccc4c(c3)c(=S)c3ccccc3n4C)ccc21`, the GI50 in experiment [1] was > 100 µM (inactive); in experiment [2], > 100 µM (inactive); in experiment [3], 65.9 µM (inactive); in [4], > 100 µM (inactive); in [18] it was > 100 µM (inactive); in experiment [5], > 100 µM (inactive). In addition, the GI50 is > 100 µM (inactive) in experiment [8]; > 100 µM (inactive) in experiment [9]; > 100 µM (inactive) in [10]; > 100 µM (inactive) in experiment [11]; 34.3 µM (inactive) in [12]; 54.7 µM (inactive) in experiment [13]. In addition, the GI50 in experiment [19] is > 100 µM (inactive); in experiment [14], > 100 µM (inactive); in experiment [15], > 100 µM (inactive); in experiment [16], > 100 µM (inactive); in [20], 54 µM (inactive); in experiment [17], > 100 µM (inactive).
For the molecule `Nc1csc(-c2scc3c2OCCO3)c1N`, the GI50 was 18.2 µM (inactive) in [1]; 14.8 µM (inactive) in [2]; 20.6 µM (inactive) in experiment [3]; 26.2 µM (inactive) in [4]; 28.8 µM (inactive) in [18]; 23 µM (inactive) in experiment [5]. For the same molecule, the GI50 was 16 µM (inactive) in experiment [6]; 26.6 µM (inactive) in [7]; 17.5 µM (inactive) in experiment [8]; 17.8 µM (inactive) in experiment [9]; 17.9 µM (inactive) in [10]; 27.8 µM (inactive) in experiment [11]. The GI50 in experiment [12] was 16.1 µM (inactive); in [13], 15.6 µM (inactive); in [19], 24.9 µM (inactive); in [14], 22.5 µM (inactive); in experiment [15] it was 15.4 µM (inactive); in [16], 17.3 µM (inactive). Further, in experiment [17], the GI50 is 27.8 µM (inactive).
For the molecule `O=P1(c2ccccc2)c2ccccc2-c2ccccc21`, the GI50 was > 100 µM (inactive) in experiment [1]; 71 µM (inactive) in [2]; > 100 µM (inactive) in experiment [3]; > 100 µM (inactive) in experiment [4]; > 100 µM (inactive) in experiment [18]; 55.3 µM (inactive) in experiment [5]. Also, the GI50 in experiment [8] is > 100 µM (inactive); in [9] it was > 10 µM (inactive); in experiment [10], > 100 µM (inactive); in experiment [11], 47.5 µM (inactive); in experiment [12], > 100 µM (inactive); in experiment [13], > 100 µM (inactive). Also, the GI50 was > 100 µM (inactive) in experiment [19]; > 100 µM (inactive) in experiment [14]; 97.7 µM (inactive) in [15]; > 100 µM (inactive) in experiment [16]; 68.9 µM (inactive) in [20]; > 100 µM (inactive) in [17].
With `CCCC(Sc1nc(N)nc2nc[nH]c12)C(=O)O` (stereo unspecified), the GI50 in experiment [2], in [3], in [4], in experiment [18], in experiment [5] and in experiment [6] was > 100 µM (inactive) each time. Further, the GI50 is > 100 µM (inactive) in [7]; > 100 µM (inactive) in [8]; 53.2 µM (inactive) in [9]; 65.2 µM (inactive) in experiment [10]; 33.2 µM (inactive) in experiment [11]; 56.2 µM (inactive) in experiment [12]. The GI50 in experiment [13] is > 100 µM (inactive); in experiment [14], > 100 µM (inactive); in experiment [15], 47.5 µM (inactive); in experiment [16] it was > 100 µM (inactive); in [20] it was > 100 µM (inactive); in experiment [17], > 100 µM (inactive).
In the case of `CC(C)c1cc(Cl)nc(Cl)n1`, the GI50 in experiment [1], in experiment [2], in experiment [3], in experiment [4], in experiment [18] and in experiment [5] was > 100 µM (inactive) each time. Further, the GI50 in experiment [7], in [8], in experiment [9], in experiment [10], in experiment [11] and in experiment [12] was > 100 µM (inactive) in each case. The GI50 in experiment [19], in [14], in experiment [15], in experiment [16], in experiment [20] and in experiment [17] was > 100 µM (inactive) in each case.
On to `Nc1ccc(Nc2cc(O)nc(O)n2)cc1`, for which the GI50 in experiment [1], in experiment [2], in experiment [3], in experiment [4], in experiment [5] and in experiment [6] was > 100 µM (inactive) throughout. The GI50 in experiment [7], in experiment [8], in [11], in [12], in [13] and in [19] was > 100 µM (inactive) in each case. The GI50 in experiment [14], in experiment [15], in experiment [16] and in [17] was > 100 µM (inactive) each time.
For the molecule `O=C(/C=C/c1ccc(O)c(O)c1)Oc1ccccc1`, the GI50 is 18.6 µM (inactive) in experiment [1]; 6.98 µM (inactive) in experiment [2]; 23.1 µM (inactive) in [3]; 12.6 µM (inactive) in experiment [4]; 9.57 µM (inactive) in experiment [18]; 17.1 µM (inactive) in experiment [5]. The GI50 in experiment [7] was 15.2 µM (inactive); in [8] it was 22.5 µM (inactive); in [9] it was 15.5 µM (inactive); in experiment [10] it was 7.43 µM (inactive); in experiment [11] it was 0.268 µM (active); in [12] it was 12.7 µM (inactive). Also, the GI50 in [13] is 15.8 µM (inactive); in experiment [19], 10.6 µM (inactive); in experiment [14] it was 4.19 µM (inactive); in [15], 16.1 µM (inactive); in [16], 16 µM (inactive); in experiment [20], 13.1 µM (inactive). Moreover, the GI50 in experiment [17] is 14.2 µM (inactive).
In the case of `O=C(O)c1cc(NCc2cc(O)ccc2O)ccc1O` [LAVENDUSTIN C], the GI50 in experiment [1] is > 100 µM (inactive); in [2] it was > 100 µM (inactive); in [3], > 100 µM (inactive); in experiment [4], 23.8 µM (inactive); in experiment [18], > 100 µM (inactive); in [5], > 100 µM (inactive). In addition, the GI50 was > 100 µM (inactive) in experiment [7]; > 100 µM (inactive) in experiment [8]; 67.1 µM (inactive) in experiment [10]; > 100 µM (inactive) in [13]; > 100 µM (inactive) in experiment [19]; > 100 µM (inactive) in experiment [14]. In addition, the GI50 in [15] was 24.8 µM (inactive); in experiment [16] it was > 100 µM (inactive); in experiment [20] it was > 100 µM (inactive); in [17], > 100 µM (inactive).
